According to ChEMBL document CHEMBL3885881, “DrugMatrix”:

Species: Rattus norvegicus
Assay: DrugMatrix - Regimen: Daily Repeat
Format: toxicity, organism-based, Sprague-Dawley
Design: regimen Daily Repeat, gender Male, age 6-8 weeks
Settings: in vivo, po, route oral GAVAGE, […]; for ABSOLUTE BASOPHIL / BASOPHIL / EOSINOPHIL / NUCLEATED RED BLOOD CELLS / MONOCYTE / ABSOLUTE EOSINOPHIL / ABSOLUTE LYMPHOCYTE / ABSOLUTE MONOCYTE / ABSOLUTE SEGMENTED NEUTROPHIL / ERYTHROCYTE COUNT / HEMATOCRIT / HEMOGLOBIN / LEUKOCYTE COUNT / LYMPHOCYTE / MEAN CORPUSCULAR HEMOGLOBIN / MEAN CORPUSCULAR HEMOGLOBIN CONCENTRATION / MEAN CORPUSCULAR VOLUME / NEUTROPHIL / PLATELET COUNT: tissue Blood; for TOTAL BILIRUBIN / URIC ACID / ALANINE AMINOTRANSFERASE / ALBUMIN / ALKALINE PHOSPHATASE / ASPARTATE AMINOTRANSFERASE / BLOOD UREA NITROGEN / CARBON DIOXIDE / CHLORIDE / CHOLESTEROL / CREATINE PHOSPHOKINASE / CREATININE / GLUCOSE / LACTATE DEHYDROGENASE / LIPASE / PHOSPHORUS / POTASSIUM / SODIUM / TOTAL PROTEIN: tissue Plasma
[1] = 0 mg/kg, 72 h, dose level Control, time 3 day
[2] = 0 mg/kg, 120 h, dose level Control, time 5 day
[3] = 10 mg/kg, 72 h, dose level M1, time 3 day
[4] = 10 mg/kg, 120 h, dose level M1, time 5 day
[5] = 650 mg/kg, 72 h, dose level High, time 3 day
[6] = 650 mg/kg, 120 h, dose level High, time 5 day
[7] = 72 h, dose 6.5 mg/Kg, dose level Low, time 3 day
[8] = 120 h, dose 6.5 mg/Kg, dose level Low, time 5 day

O=C(c1ccc(OCCN2CCCCC2)cc1)c1c(-c2ccc(O)cc2)sc2cc(O)ccc12 [RALOXIFENE]
ABSOLUTE BASOPHIL [1]: 0 CELLS/uL | BASOPHIL [1]: 0% | EOSINOPHIL [1]: 0.17% | NUCLEATED RED BLOOD CELLS [1]: 0 /100WBC | ABSOLUTE BASOPHIL [2]: 0 CELLS/uL | BASOPHIL [2]: 0% | MONOCYTE [2]: 1.17% | TOTAL BILIRUBIN [2]: 0.1 mg/dL | URIC ACID [2]: 0.52 mg/dL | ABSOLUTE BASOPHIL [3]: 0 CELLS/uL | ABSOLUTE EOSINOPHIL [3]: 29.33 CELLS/uL | ABSOLUTE LYMPHOCYTE [3]: 7440 CELLS/uL | ABSOLUTE MONOCYTE [3]: 116 CELLS/uL | ABSOLUTE SEGMENTED NEUTROPHIL [3]: 681.33 CELLS/uL | BASOPHIL [3]: 0% | EOSINOPHIL [3]: 0.33% | ERYTHROCYTE COUNT [3]: 5.44 x10E6/uL | HEMATOCRIT [3]: 34.47% | HEMOGLOBIN [3]: 13.3 G/DL | LEUKOCYTE COUNT [3]: 8.27 x10E3/uL | LYMPHOCYTE [3]: 90.33% | MEAN CORPUSCULAR HEMOGLOBIN [3]: 24.53 pg | MEAN CORPUSCULAR HEMOGLOBIN CONCENTRATION [3]: 38.6 G/DL | MEAN CORPUSCULAR VOLUME [3]: 63.53 fL | MONOCYTE [3]: 1.33% | NEUTROPHIL [3]: 8% | NUCLEATED RED BLOOD CELLS [3]: 0.33 /100WBC | PLATELET COUNT [3]: 1223 x10E3/uL | ALANINE AMINOTRANSFERASE [3]: 53.67 u/L | ALBUMIN [3]: 4.43 G/DL | ALKALINE PHOSPHATASE [3]: 398.33 u/L | ASPARTATE AMINOTRANSFERASE [3]: 90.67 u/L | BLOOD UREA NITROGEN [3]: 10 mg/dL | CARBON DIOXIDE [3]: 31.67 mmol/L | CHLORIDE [3]: 101.67 MEQ/L | CHOLESTEROL [3]: 52.67 mg/dL | CREATINE PHOSPHOKINASE [3]: 300.33 u/L | CREATININE [3]: 0.24 mg/dL | GLUCOSE [3]: 151.33 mg/dL | LACTATE DEHYDROGENASE [3]: 123 u/L | LIPASE [3]: 9.33 u/L | PHOSPHORUS [3]: 10.93 mg/dL | POTASSIUM [3]: 5.67 MEQ/L | SODIUM [3]: 147.7 MEQ/L | TOTAL BILIRUBIN [3]: 0.13 mg/dL | TOTAL PROTEIN [3]: 6.5 G/DL | URIC ACID [3]: 0.87 mg/dL | ABSOLUTE BASOPHIL [4]: 0 CELLS/uL | ABSOLUTE EOSINOPHIL [4]: 34 CELLS/uL | ABSOLUTE LYMPHOCYTE [4]: 8594.67 CELLS/uL | ABSOLUTE MONOCYTE [4]: 97 CELLS/uL | ABSOLUTE SEGMENTED NEUTROPHIL [4]: 974.33 CELLS/uL | BASOPHIL [4]: 0% | EOSINOPHIL [4]: 0.33% | ERYTHROCYTE COUNT [4]: 5.62 x10E6/uL | HEMATOCRIT [4]: 34.3% | HEMOGLOBIN [4]: 13.33 G/DL | LEUKOCYTE COUNT [4]: 9.7 x10E3/uL | LYMPHOCYTE [4]: 89% | MEAN CORPUSCULAR HEMOGLOBIN [4]: 23.8 pg | MEAN CORPUSCULAR HEMOGLOBIN CONCENTRATION [4]: 38.93 G/DL | MEAN CORPUSCULAR VOLUME [4]: 61.13 fL | MONOCYTE [4]: 1% | NEUTROPHIL [4]: 9.67% | NUCLEATED RED BLOOD CELLS [4]: 0 /100WBC | PLATELET COUNT [4]: 1211.33 x10E3/uL | ALANINE AMINOTRANSFERASE [4]: 42.33 u/L | ALBUMIN [4]: 4.5 G/DL | ALKALINE PHOSPHATASE [4]: 301.33 u/L | ASPARTATE AMINOTRANSFERASE [4]: 77.67 u/L | BLOOD UREA NITROGEN [4]: 9 mg/dL | CARBON DIOXIDE [4]: 28.67 mmol/L | CHLORIDE [4]: 102 MEQ/L | CHOLESTEROL [4]: 50 mg/dL | CREATINE PHOSPHOKINASE [4]: 198.67 u/L | CREATININE [4]: 0.33 mg/dL | GLUCOSE [4]: 168.33 mg/dL | LACTATE DEHYDROGENASE [4]: 130.67 u/L | LIPASE [4]: 8.33 u/L | PHOSPHORUS [4]: 12.1 mg/dL | POTASSIUM [4]: 4.86 MEQ/L | SODIUM [4]: 146.9 MEQ/L | TOTAL BILIRUBIN [4]: 0.1 mg/dL | TOTAL PROTEIN [4]: 6.33 G/DL | URIC ACID [4]: 0.77 mg/dL | ABSOLUTE BASOPHIL [5]: 0 CELLS/uL | BASOPHIL [5]: 0% | NUCLEATED RED BLOOD CELLS [5]: 0 /100WBC | LIPASE [5]: 10.33 u/L | URIC ACID [5]: 0.67 mg/dL | ABSOLUTE BASOPHIL [6]: 0 CELLS/uL | BASOPHIL [6]: 0% | NUCLEATED RED BLOOD CELLS [6]: 0 /100WBC | ABSOLUTE BASOPHIL [7]: 0 CELLS/uL | ABSOLUTE EOSINOPHIL [7]: 59.33 CELLS/uL | ABSOLUTE LYMPHOCYTE [7]: 5494.67 CELLS/uL | ABSOLUTE MONOCYTE [7]: 60.33 CELLS/uL | ABSOLUTE SEGMENTED NEUTROPHIL [7]: 452.33 CELLS/uL | BASOPHIL [7]: 0% | EOSINOPHIL [7]: 0.67% | ERYTHROCYTE COUNT [7]: 5.5 x10E6/uL | HEMATOCRIT [7]: 35.2% | HEMOGLOBIN [7]: 13.7 G/DL | LEUKOCYTE COUNT [7]: 6.07 x10E3/uL | LYMPHOCYTE [7]: 90.33% | MEAN CORPUSCULAR HEMOGLOBIN [7]: 24.87 pg | MEAN CORPUSCULAR HEMOGLOBIN CONCENTRATION [7]: 38.93 G/DL | MEAN CORPUSCULAR VOLUME [7]: 63.93 fL | MONOCYTE [7]: 1.33% | NEUTROPHIL [7]: 7.67% | NUCLEATED RED BLOOD CELLS [7]: 0.67 /100WBC | PLATELET COUNT [7]: 1046.33 x10E3/uL | ALANINE AMINOTRANSFERASE [7]: 63 u/L | ALBUMIN [7]: 4.13 G/DL | ALKALINE PHOSPHATASE [7]: 536.33 u/L | ASPARTATE AMINOTRANSFERASE [7]: 92 u/L | BLOOD UREA NITROGEN [7]: 8.67 mg/dL | CARBON DIOXIDE [7]: 29.67 mmol/L | CHLORIDE [7]: 98.33 MEQ/L | CHOLESTEROL [7]: 41 mg/dL | CREATINE PHOSPHOKINASE [7]: 405 u/L | CREATININE [7]: 0.12 mg/dL | GLUCOSE [7]: 157 mg/dL | LACTATE DEHYDROGENASE [7]: 73.33 u/L | LIPASE [7]: 9.67 u/L | PHOSPHORUS [7]: 10.5 mg/dL | POTASSIUM [7]: 5.24 MEQ/L | SODIUM [7]: 143.33 MEQ/L | TOTAL BILIRUBIN [7]: 0.13 mg/dL | TOTAL PROTEIN [7]: 6.07 G/DL | URIC ACID [7]: 0.63 mg/dL | ABSOLUTE BASOPHIL [8]: 0 CELLS/uL | ABSOLUTE EOSINOPHIL [8]: 0 CELLS/uL | ABSOLUTE LYMPHOCYTE [8]: 6955.67 CELLS/uL | ABSOLUTE MONOCYTE [8]: 124.33 CELLS/uL | ABSOLUTE SEGMENTED NEUTROPHIL [8]: 286.67 CELLS/uL | BASOPHIL [8]: 0% | EOSINOPHIL [8]: 0% | ERYTHROCYTE COUNT [8]: 5.53 x10E6/uL | HEMATOCRIT [8]: 34.77% | HEMOGLOBIN [8]: 13.37 G/DL | LEUKOCYTE COUNT [8]: 7.37 x10E3/uL | LYMPHOCYTE [8]: 94.33% | MEAN CORPUSCULAR HEMOGLOBIN [8]: 24.17 pg | MEAN CORPUSCULAR HEMOGLOBIN CONCENTRATION [8]: 38.47 G/DL | MEAN CORPUSCULAR VOLUME [8]: 62.87 fL | MONOCYTE [8]: 1.67% | NEUTROPHIL [8]: 4% | NUCLEATED RED BLOOD CELLS [8]: 0 /100WBC | PLATELET COUNT [8]: 1226.67 x10E3/uL | ALANINE AMINOTRANSFERASE [8]: 57 u/L | ALBUMIN [8]: 4.1 G/DL | ALKALINE PHOSPHATASE [8]: 411.67 u/L | ASPARTATE AMINOTRANSFERASE [8]: 105.33 u/L | BLOOD UREA NITROGEN [8]: 10.33 mg/dL | CARBON DIOXIDE [8]: 28.33 mmol/L | CHLORIDE [8]: 99.33 MEQ/L | CHOLESTEROL [8]: 26 mg/dL | CREATINE PHOSPHOKINASE [8]: 332.33 u/L | CREATININE [8]: 0.19 mg/dL | GLUCOSE [8]: 169 mg/dL | LACTATE DEHYDROGENASE [8]: 99.67 u/L | LIPASE [8]: 30 u/L | PHOSPHORUS [8]: 11.23 mg/dL | POTASSIUM [8]: 5.86 MEQ/L | SODIUM [8]: 144.43 MEQ/L | TOTAL BILIRUBIN [8]: 0.1 mg/dL | TOTAL PROTEIN [8]: 5.87 G/DL | URIC ACID [8]: 1 mg/dL
